Marks after values point to notes of the source that are not given here. Strand notation (5' to 3'): a small letter for the sugar, then the base; units joined by * are phosphorothioate-linked, units joined directly phosphodiester-linked; [ ] holds rarer units or linkages, { } end groups; capitals alone tell only the bases. k = constrained ethyl (cEt); [5mC] = 5-methylcytosine; d = 2'-deoxy (DNA)
What follows are substances tested on Yap1 mRNA (assay: Antisense inhibition of human Yap1 in A-431 cells by cEt gapmers, single dose (Example 4, RTS4814)). Conditions: Table 14; A-431 cells, 5,000 cells per well, free uptake, 2,000 nM, approximately 48 hours; RTS4814; normalized to RIBOGREEN; Yap1 mRNA relative to untreated control; * = targets amplicon region of primer probe set.
Type: cell-based
Outline: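 A-431 cells took up 3-10-3 cEt gapmers (16-mer, full phosphorothioate, 5-methylcytosines) by free uptake at 2,000 nM for about 48 h. Yap1 mRNA was quantified by qRT-PCR, normalized to total RNA (RIBOGREEN), and reported as % of untreated control.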

Which “YAP1 (% UTC)” value does the source give for “1074816 (kG*kA*kA*dT*dA*dT*dT*dG*d[5mC]*d[5mC]*dA*d[5mC]*d[5mC]*k[5mC]*kA*k[5mC]; antisense) [Compound 1074816]” here?
Its value is 15 % UTC.

For “1074592 (antisense kG*kG*kA*dG*d[5mC]*dA*dA*dG*dT*d[5mC]*dT*dT*dG*kT*kA*kA) [Compound 1074592]”, which “YAP1 (% UTC)” value is on record?
The value was 23 % UTC.

How did the “YAP1 (% UTC)” value turn out when “1074176 (antisense k[5mC]*kT*k[5mC]*d[5mC]*d[5mC]*d[5mC]*d[5mC]*dG*dA*d[5mC]*dG*d[5mC]*dG*k[5mC]*kA*k[5mC]) [Compound 1074176]” was run?
Its value is 84 % UTC.

With “1076064 (kT*kA*kT*dG*dA*dA*d[5mC]*dA*dA*dT*dG*dT*dA*k[5mC]*kT*k[5mC]; antisense) [Compound 1076064]” as the substance, how does the “YAP1 (% UTC)” value read?
The value was 5 % UTC.

With “1076256 (kT*kT*kA*dT*dT*dT*dA*dG*dG*d[5mC]*d[5mC]*d[5mC]*d[5mC]*kA*kT*kA; antisense) [Compound 1076256]” as the substance, how does the “YAP1 (% UTC)” value read?
The value was 4 % UTC.

For “1074560 (antisense k[5mC]*k[5mC]*kA*dA*dT*d[5mC]*dG*dA*dG*dA*d[5mC]*dT*dT*kA*kA*kA) [Compound 1074560]”, which “YAP1 (% UTC)” value is on record?
The value was 3 % UTC.

For “1076288 (k[5mC]*kT*kT*dA*dT*dT*dT*dA*dG*d[5mC]*dA*dT*dA*kG*kT*kG; antisense) [Compound 1076288]”, which “YAP1 (% UTC)” value is on record?
Its value is 3 % UTC.

Which “YAP1 (% UTC)” value does the source give for “1074624 (antisense kG*kG*k[5mC]*dT*dT*dA*dT*dT*d[5mC]*dT*dA*dG*dA*kA*kA*k[5mC]) [Compound 1074624]” here?
The value was 65 % UTC.

For “1075360 (kA*kG*kG*d[5mC]*dA*dA*d[5mC]*dA*dA*d[5mC]*dA*dT*d[5mC]*kT*kA*kA; antisense) [Compound 1075360]”, which “YAP1 (% UTC)” value is on record?
The value was 50 % UTC.

Same assay, conditions: Table 15; A-431 cells, 5,000 cells per well, free uptake, 2,000 nM, approximately 48 hours; RTS4814; normalized to RIBOGREEN; Yap1 mRNA relative to untreated control; * = targets amplicon region of primer probe set

Which “YAP1 (% UTC)” value does the source give for “1075233 (antisense kG*kT*kA*dA*dT*dT*dT*dA*dT*d[5mC]*dA*dG*d[5mC]*k[5mC]*kA*kT) [Compound 1075233]” here?
The value was 2 % UTC.

Which “YAP1 (% UTC)” value does the source give for “1076161 (kT*k[5mC]*kT*dT*dA*dT*dA*d[5mC]*dT*dA*dG*dT*dA*k[5mC]*kG*kG; antisense) [Compound 1076161]” here?
Its value is 14 % UTC.

Which “YAP1 (% UTC)” value does the source give for “1075553 (kT*kG*kA*dT*dT*dA*dT*dA*dA*d[5mC]*dA*dT*dG*k[5mC]*kT*kG; antisense) [Compound 1075553]” here?
Its value is 77 % UTC.

How did the “YAP1 (% UTC)” value turn out when “1074785 (kA*k[5mC]*k[5mC]*dA*dT*dA*dA*dG*dT*dA*dG*dA*dT*k[5mC]*kT*kA; antisense) [Compound 1074785]” was run?
The value was 10 % UTC.

Same assay, conditions: Table 16; A-431 cells, 5,000 cells per well, free uptake, 2,000 nM, approximately 48 hours; RTS4814; normalized to RIBOGREEN; Yap1 mRNA relative to untreated control cells

How did the “YAP1 (% UTC)” value turn out when “1076450 (k[5mC]*kT*kT*dG*dA*dA*dT*dA*dG*d[5mC]*dT*dA*dT*kG*kT*kG; antisense) [Compound 1076450]” was run?
Its value is 13 % UTC.

How did the “YAP1 (% UTC)” value turn out when “1075170 (antisense kA*k[5mC]*kT*dA*dA*dA*dA*dT*d[5mC]*d[5mC]*d[5mC]*d[5mC]*dA*kA*kG*kG) [Compound 1075170]” was run?
Its value is 94 % UTC.

How did the “YAP1 (% UTC)” value turn out when “1074850 (antisense kT*kT*kG*dT*dT*dA*dT*dG*dA*dT*dA*dG*dG*k[5mC]*kA*k[5mC]) [Compound 1074850]” was run?
Its value is 5 % UTC.

With “1075874 (k[5mC]*kT*kT*dA*dA*d[5mC]*dA*dA*d[5mC]*d[5mC]*d[5mC]*dT*dA*k[5mC]*kG*kA; antisense) [Compound 1075874]” as the substance, how does the “YAP1 (% UTC)” value read?
The value was 113 % UTC.

“1075394 (kT*k[5mC]*kT*dT*dA*dA*d[5mC]*d[5mC]*dT*dA*dT*dG*d[5mC]*k[5mC]*kA*kA; antisense) [Compound 1075394]” was tested. Which “YAP1 (% UTC)” value did it give?
Its value is 27 % UTC.

How did the “YAP1 (% UTC)” value turn out when “1075202 (antisense kA*kA*kT*dT*dA*dT*dA*dT*dA*dA*dG*dG*d[5mC]*kT*kG*kT) [Compound 1075202]” was run?
Its value is 26 % UTC.

With “1074690 (antisense k[5mC]*k[5mC]*kT*d[5mC]*d[5mC]*d[5mC]*d[5mC]*d[5mC]*dT*dA*dA*dG*d[5mC]*kT*kA*kA) [Compound 1074690]” as the substance, how does the “YAP1 (% UTC)” value read?
The value was 81 % UTC.

With “1076162 (kA*kT*kT*dT*dA*d[5mC]*dT*dT*dG*dG*d[5mC]*dA*dA*k[5mC]*kT*k[5mC]; antisense) [Compound 1076162]” as the substance, how does the “YAP1 (% UTC)” value read?
The value was 9 % UTC.

With “1074210 (antisense kT*k[5mC]*k[5mC]*dG*dG*dA*dG*d[5mC]*d[5mC]*dT*d[5mC]*dA*dT*kG*kG*kG) [Compound 1074210]” as the substance, how does the “YAP1 (% UTC)” value read?
Its value is 113 % UTC.

Same assay, conditions: Table 17; A-431 cells, 5,000 cells per well, free uptake, 2,000 nM, approximately 48 hours; RTS4814; normalized to RIBOGREEN; Yap1 mRNA relative to untreated control cells

With “1076451 (k[5mC]*k[5mC]*kT*dT*dA*dA*dG*dA*dA*d[5mC]*dA*dT*dG*kA*kG*kG; antisense) [Compound 1076451]” as the substance, how does the “YAP1 (% UTC)” value read?
The value was 77 % UTC.

For “1075203 (antisense kT*kA*kA*dT*dT*dA*dT*dA*dT*dA*dA*dG*dG*k[5mC]*kT*kG) [Compound 1075203]”, which “YAP1 (% UTC)” value is on record?
The value was 68 % UTC.

For “1076099 (k[5mC]*k[5mC]*kT*d[5mC]*dA*dA*dA*dA*d[5mC]*dT*dT*dG*dG*kA*kT*kT; antisense) [Compound 1076099]”, which “YAP1 (% UTC)” value is on record?
The value was 41 % UTC.

How did the “YAP1 (% UTC)” value turn out when “1074435 (kG*kA*k[5mC]*dT*dT*d[5mC]*dT*dA*dA*dG*dT*d[5mC]*dT*kG*kA*kG; antisense) [Compound 1074435]” was run?
The value was 19* % UTC.

Which “YAP1 (% UTC)” value does the source give for “1075363 (kA*k[5mC]*kA*d[5mC]*dA*dA*dT*dA*dT*d[5mC]*dA*dA*dG*kT*k[5mC]*k[5mC]; antisense) [Compound 1075363]” here?
Its value is 25 % UTC.

With “1076227 (kA*k[5mC]*kT*dT*dA*dT*dA*dA*dG*dG*d[5mC]*d[5mC]*dA*kG*k[5mC]*kA; antisense) [Compound 1076227]” as the substance, how does the “YAP1 (% UTC)” value read?
Its value is 16 % UTC.

“1075587 (k[5mC]*kT*kT*dA*dT*dT*dA*dG*d[5mC]*dA*d[5mC]*d[5mC]*dT*kG*kG*kG; antisense) [Compound 1075587]” was tested. Which “YAP1 (% UTC)” value did it give?
Its value is 50 % UTC.

With “1074563 (antisense kT*kG*kA*dA*dT*dT*d[5mC]*d[5mC]*dA*dA*dT*d[5mC]*dG*kA*kG*kA) [Compound 1074563]” as the substance, how does the “YAP1 (% UTC)” value read?
The value was 4 % UTC.

Same assay, conditions: Yap1 mRNA remaining as percent of untreated control; 3-10-3 cEt gapmers; A-431 cells; Table 36

Which “YAP1 (% UTC)” value does the source give for “1074326 (antisense kA*k[5mC]*kG*d[5mC]*dA*dG*dG*dG*d[5mC]*dT*dA*dA*d[5mC]*kT*k[5mC]*k[5mC]) [compound 1074326]” here?
Its value is 36 % UTC.

With “1075670 (antisense kT*kA*kT*dA*dT*dA*dT*dG*dA*dT*dG*dG*dA*k[5mC]*kT*kG) [compound 1075670]” as the substance, how does the “YAP1 (% UTC)” value read?
The value was 39 % UTC.

With “1076278 (kA*kA*kT*dA*dA*dG*dG*dA*d[5mC]*dA*dG*dG*dA*k[5mC]*k[5mC]*k[5mC]; antisense) [compound 1076278]” as the substance, how does the “YAP1 (% UTC)” value read?
The value was 29 % UTC.

With “1076502 (k[5mC]*kA*kA*dA*dG*dT*dA*dA*dG*dT*dG*dA*dG*k[5mC]*k[5mC]*k[5mC]; antisense) [compound 1076502]” as the substance, how does the “YAP1 (% UTC)” value read?
Its value is 17 % UTC.

“1074838 (kA*kT*kA*dA*d[5mC]*dA*dA*d[5mC]*dA*dT*dG*d[5mC]*dT*kT*kG*k[5mC]; antisense) [compound 1074838]” was tested. Which “YAP1 (% UTC)” value did it give?
The value was 9 % UTC.

How did the “YAP1 (% UTC)” value turn out when “1075830 (kG*kA*kT*dG*dA*dA*d[5mC]*dA*d[5mC]*dT*d[5mC]*dA*dA*kT*kA*kG; antisense) [compound 1075830]” was run?
Its value is 12 % UTC.

For “1074870 (kG*kT*kA*dA*dG*dT*dA*d[5mC]*d[5mC]*dT*dA*dA*d[5mC]*kA*kT*kA; antisense) [compound 1074870]”, which “YAP1 (% UTC)” value is on record?
Its value is 20 % UTC.

Same assay, conditions: Yap1 mRNA remaining as percent of untreated control; 3-10-3 cEt gapmers; A-431 cells; Table 37

With “1074199 (antisense kG*k[5mC]*k[5mC]*dG*dG*dT*dT*dG*d[5mC]*d[5mC]*d[5mC]*dG*dG*kG*kT*k[5mC]) [compound 1074199]” as the substance, how does the “YAP1 (% UTC)” value read?
Its value is 101 % UTC.

With “1075671 (kG*kA*kT*dA*dT*dA*dT*dA*dT*dG*dA*dT*dG*kG*kA*k[5mC]; antisense) [compound 1075671]” as the substance, how does the “YAP1 (% UTC)” value read?
Its value is 37 % UTC.

Source: US11214803B2, “Modulators of YAP1 expression” (Ionis Pharmaceuticals, Inc., priority 2019, dated 2022)
